Patent publication US11320434B2, “Method and apparatus for rapid detection of SARS-CoV-2” (priority 2020, dated 2022)

How the values were obtained:
[1] = biological target: T1, K9K peptide ([…], SARS-CoV-2 spike protein position 1245 to 1255) (Severe acute respiratory syndrome coronavirus 2, UniProt P0DTC2); type: binding
T1 construct: purchased Innovagen AB

[2] = test system: tetracysteine-containing peptide; details: peptide-bound versus free FlAsH-EDT2; cited from earlier work

## O=C(O)c1ccccc1-c1c2ccc(=O)c([As]3SCCS3)c-2oc2c([As]3SCCS3)c(O)ccc12 [FlAsH, 2-(4,5-di(1,3,2-dithiarsolan-2-yl)-6-hydroxy-3-oxo-3H-xanthen-9-yl)benzoic acid]
[1]
  change of fluorescence after heating the mixture: more than doubled
  effect of a reducing agent on emitted fluorescence: can be enhanced
  emission of K9K-FlAsH versus FlAsH Control: meaningfully greater
  emitted fluorescence versus Control at K9K dilutions: meaningful increases over the Control
  fluorescence after prior oxidation of K9K cysteine residues by DTNB (Curve 2): prevents generation of fluorescence
  fluorescence after treatment of oxidized K9K with TCEP (Curve 3): recovery of fluorescence
  fluorescence on treatment of peptide K9K with FlAsH (Curve 1): rapidly generate intense fluorescence emission
  fluorescence with TCEP and heating versus without TCEP or heating: nearly six times greater
  time at which emission of fluorescence begins: ≤ 15 s
[2]
  increase in fluorescence upon exchanging the EDTs for a tetracysteine-containing peptide: more than 50,000 times
